Experimental data as given in article PMC11432624.
≈ marks a conversion by molar mass, not a printed value. Where “and” joins values, the source holds several entries; their conditions need not be identical. Equal values may be shown once. Read-outs that look alike come from different tables or passages of the source. Starred links: 1 amine or outer side, 2 acyl side, 3 side chain; linkers in the order of their positions; H or OH if unused. Positions of bridges follow the written chain, without caps; N, C: chain ends. Non-standard residues stand in square brackets, D forms with d. Residues, ends and D or L forms follow the SMILES beside them. No end group written: not given here. *: point of attachment. hTyr(3S-OH,4S-OH,3'-OSO3H) = N[C@H](C(=O)O)[C@H](O)[C@@H](O)c1ccc(O)c(OS(=O)(=O)O)c1; pTerphenylCO(4''-OnC5H11) = CCCCCOc1ccc(-c2ccc(-c3ccc(C(=O)*)cc3)cc2)cc1; Orn(4R-OH,5R-OH) = O=C([C@H](C[C@@H](O)[C@@H](O)N[*:3])N[*:1])[*:2]; hTyr(3S-OH,4S-OH) = N[C@H](C(=O)O)[C@H](O)[C@@H](O)c1ccc(O)cc1; Pro(3S-OH,4S-Me) = C[C@H]1CN[C@H](C(=O)O)[C@H]1O; X1 = CCCCCOc1ccc(-c2cc(-c3ccc(C(=O)*)cc3)no2)cc1; Gln(3R-OH) = NC(=O)C[C@@H](O)[C@H](N)C(=O)O; Hyp = O=C(O)[C@@H]1C[C@@H](O)CN1

Key:
Candida albicans v47a3 = assay: Sensitivity of clinical isolates to conventional antimycotics (broth dilution MIC); settings: V47A3, read-out: MICs
Candida albicans 9.1 = assay: as above; settings: Candida albicans, 9.1, read-out: MICs
pepsin = pepsin (Sus scrofa, UniProt P00791); settings: 50 ng pepsin per 1 μg peptide, 0.05 M HCl pH~1.3, peptide 0.5 mg/mL, 37 °C, after 2 h, SDS-PAGE densitometry
Method: Gastric digestion was performed using 50 ng of pepsin per 1 μg of acidocin A in 0.05 M HCl (pH~1.3). […] The concentration of the peptide was 0.5 mg/mL in both cases. The reaction mixtures were incubated at 37 °C for 2 h and the aliquots were taken at 5 min, 30 min and 2 h after the start of incubation, immediately mixed with the sample buffer containing 4% SDS, and heated for 5 min at 80 °C to ensure protease inactivation. The degree of proteolysis was monitored by Laemmli SDS-PAGE in 18%T 3%C polyacrylamide gels by applying a volume of the mixture containing 1.5 μg of the peptide per lane.

human red blood cells = tested on: human red blood cells; parameters: method as in PMID 36557160; settings: cited from earlier work
C. albicans ATCC 18804 = assay: microbe, parasite or virus in culture; type: cell-based
Text: (§1) Antifungal activity of the recombinant peptides was studied against collection strains of Candida albicans ATCC 18804 and ATCC 10231, clinical isolates of C. albicans v47a3 and 9.1, clinical isolates of C. krusei 225/2, C. glabrata 252/2 and C. tropicalis v13a4/2 isolated from the patients with human immunodeficiency virus (HIV) infection and provided by the G.N. Gabrichevsky Research Institute for Epidemiology and Microbiology (Moscow, Russia). C. albicans ATCC 18804 and v47a3, C. krusei 225/2, C. glabrata 252/2 and C. tropicalis v13a4/2 were characterized as sensitive to antimycotics yeast strains, while C. albicans ATCC 10231 and 9.1 were resistant to azoles. C. albicans ATCC 10231 was also resistant to anidulafungin (Supplementary Materials, Tables S4 and S6).
(§2) The study was carried out in Sabouraud broth using 96-well microplates. Yeast cells at a concentration of 4 × 10^4 cells/mL were mixed with equal volumes of two-fold dilutions of peptides in water, starting with a maximum concentration of 32 μM. Control wells without peptides were also used. Microplates were incubated at 30 °C for 24 h after that yeast growth was estimated using an inverted microscope and by measuring the optical density at 630 nm. MIC was defined as minimal peptide concentration, inhibiting fungal growth by 100%. To determine whether the peptides act fungicidal or fungistatic, the contents of the wells of the plate with peptide concentrations equal to MIC and higher were sown on Sabouraud agar and incubated at 37 °C for 24 h. MFC was defined as minimal peptide concentration, ensuring the death of all fungal cells. FI was defined as the fungicide index, equal to the MFC/MIC ratio and indicating the severity of the fungicidal action of the peptide. […] Either 150 mM NaCl, 1.25 mM MgCl2, 1.25 mM CaCl2 or 10% fetal bovine serum (FBS) was added to Sabouraud broth to estimate the influence of various salts and serum on the antifungal activity of peptides tested.

[1] = not given; remark: listed apart in the source
C. albicans 9.1 = type: cell-based; settings: 9.1, 24 h
Text: as §1, §2

C. albicans v47a = type: cell-based; settings: 24 h
Text: as §1, §2

C. krusei 225/2 = type: cell-based; settings: 225/2, 24 h
Text: as §1, §2

C. tropicalis v13a4/2 = type: cell-based; settings: v13a4/2, 24 h
Text: as §1, §2

C. glabrata 252/2 = type: cell-based; settings: 252/2, 24 h
Text: as §1, §2

C. albicans ATCC 10231 = type: cell-based; settings: ATCC 10231, 24 h
Text: as §1, §2

Chain of pepsin (P00791 60-385): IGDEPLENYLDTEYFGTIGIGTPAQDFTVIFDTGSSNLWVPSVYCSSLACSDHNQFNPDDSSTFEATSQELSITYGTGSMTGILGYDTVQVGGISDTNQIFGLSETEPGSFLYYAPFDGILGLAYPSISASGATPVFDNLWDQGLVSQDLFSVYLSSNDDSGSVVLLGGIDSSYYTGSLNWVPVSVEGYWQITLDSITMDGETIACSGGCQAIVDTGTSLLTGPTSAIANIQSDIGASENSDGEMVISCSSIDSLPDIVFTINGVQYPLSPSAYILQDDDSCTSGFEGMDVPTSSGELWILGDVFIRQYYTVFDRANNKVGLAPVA

For `CCCCCOc1ccc(-c2ccc(-c3ccc(C(=O)N[C@H]4C[C@@H](O)[C@@H](O)NC(=O)[C@@H]5[C@@H](O)[C@@H](C)CN5C(=O)[C@H]([C@@H](C)O)NC(=O)[C@H]([C@H](O)[C@@H](O)c5ccc(O)cc5)NC(=O)[C@@H]5C[C@@H](O)CN5C(=O)[C@H]([C@@H](C)O)NC4=O)cc3)cc2)cc1` [Anidulafungin] ({pTerphenylCO(4''-OnC5H11)}-[Orn(4R-OH,5R-OH)]T[Hyp][hTyr(3S-OH,4S-OH)]T[Pro(3S-OH,4S-Me)]; lactam 1-C), which MIC (Candida albicans v47a3) is on record?
The MIC was 0.03 µg/mL (≈ 0.0263 µM).

What about the MIC (Candida albicans 9.1) of the same compound?
The MIC was 0.06 µg/mL (≈ 0.0526 µM).

What does the source list for “KTYYGTNGVHCTKKSLWGKVRLKNVIPGTLCRKQSLPIKQDLKILLGWATGAFGKTFH (disulfide 11-31) [Acidocin A]”?
β-Turn (cited from earlier work): 20.3% and 19.2% and 22.6%; resistance to pepsin (amount remaining) (pepsin): more than half of the initial amount was retained; HC10 (human red blood cells): > 128 µM; MFC (C. albicans ATCC 18804; ATCC 18804, 24 h): 8 µM; MIC (C. albicans ATCC 18804; ATCC 18804, 24 h): 4 µM; Random ([1]; cited from earlier work): 28.6% and 37.9% and 28.8%; MFC (C. albicans 9.1): 16 µM; MIC (C. albicans 9.1): 4 µM; MFC (C. albicans v47a): 4 µM; MIC (C. albicans v47a): 4 µM; MFC (C. krusei 225/2): 8 µM; MIC (C. krusei 225/2): 8 µM; MFC (C. tropicalis v13a4/2): 4 µM; MIC (C. tropicalis v13a4/2): 4 µM; MFC (C. glabrata 252/2): 4 µM; MIC (C. glabrata 252/2): 4 µM; MFC (C. albicans ATCC 10231): 16 µM; MIC (C. albicans ATCC 10231): 8 µM

What does the source list for `C[C@@H](c1ncncc1F)[C@](O)(Cn1cncn1)c1ccc(F)cc1F` [Voriconazole]?
MIC (Candida albicans v47a3): 0.5 µg/mL (≈ 1.43 µM); MIC (Candida albicans 9.1): 8 µg/mL (≈ 22.9 µM)

What does the source list for “KTHYPTNAWKSLWKGFWESLRYTDGF [Acidocin 8912]”?
β-Turn: 23.9% and 17% and 22.4%; MFC (C. albicans ATCC 18804; ATCC 18804, 24 h): >32 µM; MIC (C. albicans ATCC 18804; ATCC 18804, 24 h): 32 µM; Random [1]: 28.9% and 31.2% and 20.3%; MFC (C. albicans 9.1): 32 µM; MIC (C. albicans 9.1): 16 µM; MFC (C. albicans v47a): >32 µM; MIC (C. albicans v47a): 16 µM; MFC (C. krusei 225/2): 32 µM; MIC (C. krusei 225/2): 32 µM; MFC (C. tropicalis v13a4/2): 16 µM; MIC (C. tropicalis v13a4/2): 16 µM; MFC (C. glabrata 252/2): 16 µM; MIC (C. glabrata 252/2): 16 µM; MFC (C. albicans ATCC 10231): 32 µM; MIC (C. albicans ATCC 10231): 16 µM

Which results are given for `CCCCCOc1ccc(-c2cc(-c3ccc(C(=O)N[C@H]4C[C@@H](O)[C@@H](O)NC(=O)[C@@H]5[C@@H](O)[C@@H](C)CN5C(=O)[C@H]([C@H](O)CC(N)=O)NC(=O)[C@H]([C@H](O)[C@@H](O)c5ccc(O)c(OS(=O)(=O)O)c5)NC(=O)[C@@H]5C[C@@H](O)CN5C(=O)[C@H]([C@@H](C)O)NC4=O)cc3)no2)cc1` [Micafungin] (X1-[Orn(4R-OH,5R-OH)]T[Hyp][hTyr(3S-OH,4S-OH,3'-OSO3H)][Gln(3R-OH)][Pro(3S-OH,4S-Me)]; lactam 1-C)?
MIC (Candida albicans v47a3): 0.008 µg/mL (≈ 0.0063 µM); MIC (Candida albicans 9.1): 0.015 µg/mL (≈ 0.0118 µM)

Which MIC (Candida albicans v47a3) does the source give for `OC(Cn1cncn1)(Cn1cncn1)c1ccc(F)cc1F` [Fluconazole] here?
Its MIC is 8 µg/mL (≈ 26.1 µM).

What about the MIC (Candida albicans 9.1) of the same compound?
The MIC was 256 µg/mL (≈ 836 µM).

What does the source list for `CC[C@@H]([C@H](C)O)n1ncn(-c2ccc(N3CCN(c4ccc(OC[C@@H]5CO[C@@](Cn6cncn6)(c6ccc(F)cc6F)C5)cc4)CC3)cc2)c1=O` [Posaconazole]?
MIC (Candida albicans v47a3): 0.12 µg/mL (≈ 0.171 µM); MIC (Candida albicans 9.1): 8 µg/mL (≈ 11.4 µM)

For `CCC(C)n1ncn(-c2ccc(N3CCN(c4ccc(OCC5COC(Cn6cncn6)(c6ccc(Cl)cc6Cl)O5)cc4)CC3)cc2)c1=O` (stereo not drawn) [Itraconazole], which MIC (Candida albicans v47a3) is on record?
The MIC was 0.12 µg/mL (≈ 0.17 µM).

And the MIC (Candida albicans 9.1)?
Its MIC is 16 µg/mL (≈ 22.7 µM).

Which results are given for `CC[C@H](C)C[C@H](C)CCCCCCCCC(=O)N[C@H]1C[C@@H](O)[C@@H](NCCN)NC(=O)[C@@H]2[C@@H](O)CCN2C(=O)[C@H]([C@H](O)CCN)NC(=O)[C@H]([C@H](O)[C@@H](O)c2ccc(O)cc2)NC(=O)[C@@H]2C[C@@H](O)CN2C(=O)[C@H]([C@@H](C)O)NC1=O` [Caspofungin]?
MIC (Candida albicans v47a3): 0.06 µg/mL (≈ 0.0549 µM); MIC (Candida albicans 9.1): 0.12 µg/mL (≈ 0.11 µM)

Which “concentration with fungicidal effect (2 × MIC)” value (C. albicans ATCC 18804; C. albicans ATCC 18804, antifungal activity assay) does the source give for `C[C@@H]1[C@H](O)[C@@H](C)/C=C/C=C/C=C/C=C/C=C/C=C/C=C/[C@H](O[C@@H]2O[C@H](C)[C@@H](O)[C@H](N)[C@@H]2O)C[C@@H]2O[C@](O)(C[C@@H](O)C[C@@H](O)[C@H](O)CC[C@@H](O)C[C@@H](O)CC(=O)O[C@H]1C)C[C@H](O)[C@H]2C(=O)O` [Amphotericin B, reference compound] here?
The value was 1 µg/mL.

And the MIC (C. albicans ATCC 18804; Candida albicans, ATCC18804, C. albicans ATCC 18804, wells previously blocked with 0.1% BSA, read-out: MIC)?
The MIC was 0.5 µg/mL.

And the MIC (Candida albicans v47a3)?
The MIC was 0.5 µg/mL (≈ 0.541 µM).

What about the MIC (Candida albicans 9.1) of the same compound?
The MIC was 1 µg/mL (≈ 1.08 µM).

For `Nc1[nH]c(=O)ncc1F` [Flucytosine], which MIC (Candida albicans v47a3) is on record?
Its MIC is 0.06 µg/mL (≈ 0.465 µM).

And the MIC (Candida albicans 9.1)?
Its MIC is 0.06 µg/mL (≈ 0.465 µM).
